{
  "source": "paper PMC5513037",
  "about": "“Examining the influence of specificity ligands and ATP-competitive ligands on the overall effectiveness of bivalent kinase inhibitors” (Proteome Science, 2017)",
  "format_in_all_cases": "binding",
  "key": {"BRD4": {"biological_target": "T1, BRD4 (Homo sapiens, UniProt O60885)", "T1 construct": "endogenous in cells; host or cells: K562", "test": "Imatinib-matrix competition in K562 lysate", "details": "read-out: RB50 (the source's name)", "text": "(§1) Data were visualized for further analysis using Spotfire DXP."}, "TRIM33": {"biological_target": "T2, TRIM33 (Homo sapiens, UniProt Q9UPN9)", "T2 construct": "endogenous in cells; host or cells: K562", "test": "Imatinib-matrix competition in K562 lysate", "details": "read-out: RB50 (the source's name)", "text": "as §1"}, "TFG": {"biological_target": "T3, TFG (Homo sapiens, UniProt Q92734)", "T3 construct": "endogenous in cells; host or cells: K562", "test": "Imatinib-matrix competition in K562 lysate", "details": "read-out: RB50 (the source's name)", "text": "as §1"}, "TKT": {"biological_target": "T4, TKT (Homo sapiens, UniProt P29401)", "T4 construct": "endogenous in cells; host or cells: K562", "test": "Imatinib-matrix competition in K562 lysate", "details": "read-out: RB50 (the source's name)", "text": "as §1"}, "CHD5": {"biological_target": "T5, CHD5 (Homo sapiens, UniProt Q8TDI0)", "T5 construct": "endogenous in cells; host or cells: K562", "test": "Imatinib-matrix competition in K562 lysate", "details": "read-out: RB50 (the source's name)", "text": "as §1"}, "CDC7": {"biological_target": "T6, CDC7 (Homo sapiens, UniProt O00311)", "T6 construct": "endogenous in cells; host or cells: K562 lysate", "test": "Imatinib-matrix competition in K562 lysate", "details": "read-out: RB50 (the source's name)", "text": "as §1"}, "VRK1": {"biological_target": "T7, VRK1 (Homo sapiens, UniProt Q99986)", "T7 construct": "endogenous in cells; host or cells: K562", "T7 sequence (Q99986 1-396)": "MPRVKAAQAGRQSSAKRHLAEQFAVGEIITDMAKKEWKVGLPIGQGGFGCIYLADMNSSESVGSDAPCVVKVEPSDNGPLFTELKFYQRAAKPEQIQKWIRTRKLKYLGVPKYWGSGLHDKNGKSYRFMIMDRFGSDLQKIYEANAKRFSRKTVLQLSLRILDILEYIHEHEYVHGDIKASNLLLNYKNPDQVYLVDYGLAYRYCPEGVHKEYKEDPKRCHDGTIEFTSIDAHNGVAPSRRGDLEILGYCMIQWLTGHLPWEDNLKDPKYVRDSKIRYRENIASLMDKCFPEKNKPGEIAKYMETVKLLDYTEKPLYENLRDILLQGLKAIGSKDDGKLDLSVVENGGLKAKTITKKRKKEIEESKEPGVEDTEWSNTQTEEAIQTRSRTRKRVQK", "test": "Imatinib-matrix competition in K562 lysate", "details": "read-out: RB50 (the source's name)", "text": "as §1"}, "NRK": {"biological_target": "T8, NRK (Homo sapiens, UniProt Q7Z2Y5)", "T8 construct": "endogenous in cells; host or cells: K562", "test": "Imatinib-matrix competition in K562 lysate", "details": "read-out: RB50 (the source's name)", "text": "as §1"}, "SPEG": {"biological_target": "T9, SPEG (Homo sapiens, UniProt Q15772)", "T9 construct": "endogenous in cells; host or cells: K562", "test": "Imatinib-matrix competition in K562 lysate", "details": "read-out: RB50 (the source's name)", "text": "as §1"}, "TRIM28": {"biological_target": "T10, TRIM28 (Homo sapiens, UniProt Q13263)", "T10 construct": "endogenous in cells; host or cells: K562", "test": "Imatinib-matrix competition in K562 lysate", "details": "read-out: RB50 (the source's name)", "text": "as §1"}, "BUB1B": {"biological_target": "T11, BUB1B (Homo sapiens, UniProt O60566)", "T11 construct": "endogenous in cells; host or cells: K562", "test": "Imatinib-matrix competition in K562 lysate", "details": "read-out: RB50 (the source's name)", "text": "as §1"}, "MERTK": {"biological_target": "T12, MERTK (Homo sapiens, UniProt Q12866)", "T12 construct": "endogenous in cells; host or cells: K562", "T12 sequence (Q12866 21-999)": "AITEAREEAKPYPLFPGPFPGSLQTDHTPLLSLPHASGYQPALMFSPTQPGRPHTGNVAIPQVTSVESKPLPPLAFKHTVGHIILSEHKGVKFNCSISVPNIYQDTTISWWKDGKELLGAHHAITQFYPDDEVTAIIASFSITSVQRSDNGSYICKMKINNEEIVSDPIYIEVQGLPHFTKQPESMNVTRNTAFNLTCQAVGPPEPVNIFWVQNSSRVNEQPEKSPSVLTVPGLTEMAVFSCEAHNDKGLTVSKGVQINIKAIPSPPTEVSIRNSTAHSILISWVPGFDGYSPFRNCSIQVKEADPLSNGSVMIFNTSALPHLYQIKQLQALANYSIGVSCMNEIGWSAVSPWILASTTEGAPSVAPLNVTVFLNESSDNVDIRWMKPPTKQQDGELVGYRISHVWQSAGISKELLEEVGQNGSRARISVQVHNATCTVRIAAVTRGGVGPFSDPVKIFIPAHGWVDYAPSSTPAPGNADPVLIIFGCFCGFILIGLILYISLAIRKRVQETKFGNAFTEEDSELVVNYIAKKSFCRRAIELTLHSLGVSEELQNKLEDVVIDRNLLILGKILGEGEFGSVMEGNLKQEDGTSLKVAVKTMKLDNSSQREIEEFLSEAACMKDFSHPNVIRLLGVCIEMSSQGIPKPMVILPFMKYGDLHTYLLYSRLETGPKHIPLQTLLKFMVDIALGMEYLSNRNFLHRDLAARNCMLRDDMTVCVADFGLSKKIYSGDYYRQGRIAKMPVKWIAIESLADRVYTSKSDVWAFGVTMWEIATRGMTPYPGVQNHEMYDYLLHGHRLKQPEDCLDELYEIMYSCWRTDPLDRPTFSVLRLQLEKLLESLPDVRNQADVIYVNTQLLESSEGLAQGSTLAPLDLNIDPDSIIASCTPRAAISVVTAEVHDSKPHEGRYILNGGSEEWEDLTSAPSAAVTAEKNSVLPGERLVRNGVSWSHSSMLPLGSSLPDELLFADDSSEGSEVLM", "test": "KAM-matrix competition in K562 lysate", "experimental": "Supplement 12953_2017_125_MOESM1_ESM.zip/MS_Supp Info.xlsx, sheet \"KAM\" | column: 10 uM KAM; 1 uM KAM; 0.1 uM KAM; 0.01 uM KAM; 0.001 uM KAM; RB50"}, "TAF1L": {"biological_target": "T13, TAF1L (Homo sapiens, UniProt Q8IZX4)", "T13 construct": "endogenous in cells; host or cells: K562", "test": "KAM-matrix competition in K562 lysate", "details": "relative to 0 uM KAM = 0", "experimental": "Supplement 12953_2017_125_MOESM1_ESM.zip/MS_Supp Info.xlsx, sheet \"KAM\" | column: 1 uM KAM; 0.01 uM KAM"}},
  "note": "pIC50: −log10 of the molar value.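 For 0.001 uM KAM in this document: median log10 fold change of treatment over DMSO control.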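 For 0.1 uM KAM in this document: median log10 fold change of treatment over DMSO control.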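 For 10 uM KAM in this document: median log10 fold change of treatment over DMSO control.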",
  "data": [
    {"smiles": "Cc1ccc(NC(=O)c2ccc(CN3CCN(C)CC3)cc2)cc1Nc1nccc(-c2cccnc2)n1", "note": "[Imatinib]", "values": [
      {"measurement": "pIC50", "setting": "BRD4", "value": "< 5.00"},
      {"measurement": "pIC50", "setting": "TRIM33", "value": "< 5.00"},
      {"measurement": "pIC50", "setting": "TFG", "value": "< 5.00"},
      {"measurement": "pIC50", "setting": "TKT", "value": "< 5.00"},
      {"measurement": "pIC50", "setting": "CHD5", "value": "< 5.00"},
      {"measurement": "pIC50", "setting": "CDC7", "value": "< 5.00"},
      {"measurement": "pIC50", "setting": "VRK1", "value": "< 5.00"},
      {"measurement": "pIC50", "setting": "NRK", "value": "< 5.00"},
      {"measurement": "pIC50", "setting": "SPEG", "value": "< 5.00"},
      {"measurement": "pIC50", "setting": "TRIM28", "value": "< 5.00"},
      {"measurement": "pIC50", "setting": "BUB1B", "value": "< 5.00"}
    ]},
    {"smiles": "N#CCc1ccc(Nc2nc(NCCCN)cc(Nc3cc(C4CC4)[nH]n3)n2)cc1", "note": "[KAM]", "values": [
      {"measurement": "pIC50", "setting": "MERTK; KAM 0.001-10 uM, read-out: RB50 (the source's name)", "value": "< 5.00"},
      {"measurement": "0.001 uM KAM", "setting": "MERTK; relative to 0 uM KAM = 0", "value": -0.05728},
      {"measurement": "0.01 uM KAM", "setting": "MERTK; relative to 0 uM KAM = 0", "value": -0.0237},
      {"measurement": "0.1 uM KAM", "setting": "MERTK; relative to 0 uM KAM = 0", "value": -0.04893},
      {"measurement": "1 uM KAM", "setting": "MERTK; relative to 0 uM KAM = 0", "value": -0.1208},
      {"measurement": "10 uM KAM", "setting": "MERTK; relative to 0 uM KAM = 0", "value": -0.2454},
      {"measurement": "0.01 uM KAM", "setting": "TAF1L", "value": 0.1793},
      {"measurement": "1 uM KAM", "setting": "TAF1L", "value": -0.2683}
    ]}
  ]
}
